What was measured:
Her-2 sheddase = experiment: Her-2 ECD ELISA of BT474 culture supernatants (Her-2 sheddase inhibition); format: cell-based, human
Description: BT474 cells were seeded in 100 μL of RPMI medium containing 10% FCS+10 μg/ml insulin in 96 well plates at 2×10^4 cells/well. The cells were incubated overnight at 37° C. The following morning, the media was removed and 100 μL of fresh media with or without compound was added back. The cells were incubated for about 72 hours at 37° C. After about 72 hours, the supernatants were removed. The samples were diluted 1:10 and analyzed using a commercially available Her-2 ELISA kit per manufacturer's instructions (Oncogene Research, catalog #QIA 10).
These inhibitors were added, at varying concentrations, to cultures of BT474 cells, a Her-2 overexpressing breast cancer cell line known to enzymatically process cell surface Her-2 (p185) and release the extracellular domain (ECD) into the culture supernatant, i.e., shedding of ECD. After 72 hours, cell culture supernatants were harvested and assayed for Her-2 ECD content using an ELISA assay.

MMP12 = MMP12 (Homo sapiens, UniProt P39900); experiment: MMP12 fluorogenic peptide biochemical assay
Source text: Source of enzymes for biochemical assays: Except for ADAM17 and MT1-MMP, all recombinant human MMPs and ADAMs were obtained from R&D Systems (Minneapolis, Minn.). […] MT1-MMP was obtained from US Biological (Swampscott, Mass.) with a catalog number of M2429. Porcine ADAM17 was purified in house from porcine spleen.
Substrates for biochemical assays: Fluorogenic Peptide substrate, (7-methoxycoumarin-4-yl)acetyl-Pro-Leu-Gly-Leu-(3-[2,4-dinitrophenyl]-L-2,3-diaminopropionyl)-Ala-Arg-NH2 (SEQ ID NO: 46), was obtained from R&D Systems (Minneapolis, Minn.) with a catalog number of ES001. It was used as substrate for MMP1, MMP2, MMP7, MMP8, MMP9, MMP12, MMP13, and MT1-MMP. Fluorogenic Peptide substrate, (7-methoxycoumarin-4-yl)acetyl-Arg-Pro-Lys-Pro-Val-Glu-Nva-Trp-Arg-Lys(2,4-dinitrophenyl)-NH2 (SEQ ID NO: 47), was obtained from R&D Systems with a catalog number of ES002. It was used as substrate for MMP3 and MMP10. […]
In general, 5 mM compound stock was prepared in DMSO. […] The plate was read on a plate reader with excitation of 320 nm and emission of 405 nm. Percentage of inhibition was calculated for each concentration and IC50 value was generated from curve fitting. […]

BT474 cells = experiment: Cell proliferation assay (cell counting, BrdU incorporation); format: cell-based, human; conditions: Her-2 overexpressing BT474 cells
Description: (§1) Proliferation assays were routinely performed with two protocols: cell counting and BrdU incorporation assay. For cell counting, cells (1×10^5) were seeded in each well of 12 well plates and cultured overnight. Then, cells were treated for 6 days with drugs and compounds as indicated in individual experiments. Culture media were replaced with fresh media containing the same concentrations of drugs and compounds after the first 3 days of treatment. Viable cells were counted with hemacytometers immediately after trypan blue staining.
The BrdU incorporation assay was performed using a colorimetric Cell Proliferation ELISA kit per manufacturer's instruction (#1647229, Roche Molecular Biochemicals), measuring DNA synthesis in proliferating cells. Briefly, cells (5−10×10^3) were seeded in each well of 96 well plates and cultured overnight. […] Finally, 100 μl/well of substrate solution was added and the results were obtained using a microplate reader (Spectra Max PLUS, Molecular Devices) during color development. Multiple readings at various time points were obtained and results in the linear range of the assay were obtained. […]
After varying periods of cell culture (2-6 days), the cell cultures were harvested and cell growth was assessed by cell count and BRdU incorporation using standard protocols.

MCF7 cells = experiment: as above; format: cell-based, human; conditions: MCF7 cells which do not overexpress Her-2
Description: as §1
The BrdU incorporation assay was performed using a colorimetric Cell Proliferation ELISA kit per manufacturer's instruction (#1647229, Roche Molecular Biochemicals), measuring DNA synthesis in proliferating cells. Briefly, cells (5−10×10^3) were seeded in each well of 96 well plates and cultured overnight. The next day, culture media were replaced with fresh media containing drugs and compounds as indicated for individual experiments. […] Finally, 100 μl/well of substrate solution was added and the results were obtained using a microplate reader (Spectra Max PLUS, Molecular Devices) during color development. Multiple readings at various time points were obtained and results in the linear range of the assay were obtained. […]

Sequence of MMP12 (P39900 106-470): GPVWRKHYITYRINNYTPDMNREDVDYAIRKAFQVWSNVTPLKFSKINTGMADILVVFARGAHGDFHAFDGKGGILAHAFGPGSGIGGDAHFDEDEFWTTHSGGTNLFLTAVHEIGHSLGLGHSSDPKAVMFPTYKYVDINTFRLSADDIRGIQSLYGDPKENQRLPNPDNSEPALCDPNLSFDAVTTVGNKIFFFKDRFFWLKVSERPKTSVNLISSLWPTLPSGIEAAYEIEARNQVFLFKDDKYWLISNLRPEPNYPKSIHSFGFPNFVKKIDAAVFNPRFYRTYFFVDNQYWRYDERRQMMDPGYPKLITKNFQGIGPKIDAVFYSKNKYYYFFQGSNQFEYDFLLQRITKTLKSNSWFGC

- IC50 (MMP12): 1.95 nM
Compound: CN1CC2(CC2)C[C@H](C(=O)NO)[C@H]1C(=O)N1CCN(c2ccc(C(F)(F)F)cn2)CC1 [Compound 6]
- Her-2 sheddase activity (Her-2 sheddase): inactive
- effect on antiproliferative activity of a suboptimal dose of Herceptin (BT474 cells): does not enhance
- effect on antiproliferative activity of a suboptimal dose of Herceptin (MCF7 cells): does not enhance
